According to patent US12162820B2 (TAIWANJ PHARMACEUTICALS CO., LTD., priority 2019, dated 2024):

Assays:
Type in all cases: biochemical
HDAC3 = biological target: T1, HDAC3 (Homo sapiens, UniProt O15379); experiment: HDAC Inhibition Screening Assay (FLUOR DE LYS Fluorimetric Drug Discovery Kit), HDAC3; conditions: for inhibition at 2 µM: 2 μM compound; for inhibition at 10 µM: 10 μM compound; for inhibition at 50 µM: 50 μM compound
T1 construct: purchased Enzo Life Sciences
Protocol: (§1) The HDAC1/HDAC2/HDAC3 in vitro activities are detected by Enzo Life Sciences' HDAC1/HDAC2/HDAC3 Fluorimetric Drug Discovery Kit. The assay is based on the FLUOR DE LYS® Substrate and FLUOR DE LYS® Developer combination. The assay procedure has two steps. First, the FLUOR DE LYS® Substrate, which comprises an acetylated lysine side chain, is incubated with HDAC1/HDAC2/HDAC3, respectively. Deacetylation of the substrate sensitizes the substrate so that, in the second step, treatment with the FLUOR DE LYS® Developer produces a fluorophore. The signals of the test compounds (Compounds 1˜83; at concentrations of 2 μM, 10 μM and 50 μM) in 96-well plates are detected at 360 nm or 485 nm excitation and 460 nm or 530 nm emission with a Molecular Devices SpectraMax i3 Imaging Cytometer. The HDAC1/HDAC2/HDAC3 activities are expressed in percentage of basal control minus baseline control.

HDAC2 = biological target: T2, HDAC2 (Homo sapiens, UniProt Q92769); experiment: HDAC Inhibition Screening Assay (FLUOR DE LYS Fluorimetric Drug Discovery Kit), HDAC2; conditions: for inhibition at 2 µM: 2 μM compound; for inhibition at 10 µM: 10 μM compound; for inhibition at 50 µM: 50 μM compound
T2 construct: purchased Enzo Life Sciences
T2 sequence (Q92769 whole entry): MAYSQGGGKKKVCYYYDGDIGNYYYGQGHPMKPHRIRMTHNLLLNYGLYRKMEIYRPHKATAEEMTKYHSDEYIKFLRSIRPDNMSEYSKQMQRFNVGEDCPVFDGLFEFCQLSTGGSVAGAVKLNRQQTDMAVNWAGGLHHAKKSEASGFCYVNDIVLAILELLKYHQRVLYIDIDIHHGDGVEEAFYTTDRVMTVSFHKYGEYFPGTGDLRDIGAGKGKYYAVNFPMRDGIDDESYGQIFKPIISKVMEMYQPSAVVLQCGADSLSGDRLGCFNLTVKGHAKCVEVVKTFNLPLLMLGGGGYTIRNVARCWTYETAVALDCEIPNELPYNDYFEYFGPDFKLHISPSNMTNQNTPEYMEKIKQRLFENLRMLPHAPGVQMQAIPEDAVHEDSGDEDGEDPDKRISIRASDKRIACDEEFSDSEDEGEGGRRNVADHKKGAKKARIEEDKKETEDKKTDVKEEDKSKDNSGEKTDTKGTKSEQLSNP
Protocol: as §1

HDAC1 = biological target: T3, HDAC1 (Homo sapiens, UniProt Q13547); experiment: HDAC Inhibition Screening Assay (FLUOR DE LYS Fluorimetric Drug Discovery Kit), HDAC1; conditions: for inhibition at 2 µM: 2 μM compound; for inhibition at 10 µM: 10 μM compound; for inhibition at 50 µM: 50 μM compound
T3 construct: purchased Enzo Life Sciences
T3 sequence (Q13547 whole entry): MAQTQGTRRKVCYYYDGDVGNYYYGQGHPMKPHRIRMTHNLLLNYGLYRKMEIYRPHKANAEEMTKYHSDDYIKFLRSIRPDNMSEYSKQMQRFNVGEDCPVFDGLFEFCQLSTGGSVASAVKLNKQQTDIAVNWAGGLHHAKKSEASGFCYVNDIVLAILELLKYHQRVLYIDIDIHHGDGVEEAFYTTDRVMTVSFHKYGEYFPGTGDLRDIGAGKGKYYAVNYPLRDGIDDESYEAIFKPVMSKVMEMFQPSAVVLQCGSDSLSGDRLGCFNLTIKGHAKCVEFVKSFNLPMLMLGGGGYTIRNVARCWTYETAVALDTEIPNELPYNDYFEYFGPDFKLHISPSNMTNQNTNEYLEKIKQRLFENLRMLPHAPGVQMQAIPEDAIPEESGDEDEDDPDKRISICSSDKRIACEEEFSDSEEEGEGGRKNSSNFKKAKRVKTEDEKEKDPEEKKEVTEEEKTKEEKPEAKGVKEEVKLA
Protocol: as §1

ATX (autotaxin) = biological target: T4, ATX (autotaxin) (Homo sapiens, UniProt Q13822); experiment: Autotaxin Inhibition Screening Assay (choline release from LPC, LPC-CR); conditions: for inhibition at 4 µM: 4 μM compound; for inhibition at 20 µM: 20 μM compound; for inhibition at 50 µM: 50 μM compound
T4 construct: purchased Cayman 10803
Protocol: ATX (autotaxin) activity was measured by choline release from LPC in presence or absence of test compounds (Compounds 1˜83; at concentrations of 4 μM, 20 μM and 50 μM). Twenty (20) ng ATX (10803, Cayman, MI, USA) was incubated with 100 μM 14:0 LPC (855575P, Avanti, AL, USA) in a final volume of 100 μL buffer containing 50 mM Tris pH 8.0, 0.01% Triton X-100, 50 mM CaCl2, 1 unit/ml choline oxidase, 2 unit/ml horseradish peroxidase (HRP), 2 mM homovanilic acid (HVA). The relative amount of released choline was measured by HVA fluorescence in a 96-well plate. Fluorescent intensity was determined at λex/λem=320/450 nm every 60 sec for 90 min with a SpectraMax i3 (Molecular Devices, CA, USA). Data analysis was performed using GraphPad Prism (GraphPad, La Jolla CA, USA). Inhibition %=[1−(SlopeTA−SlopeBlank)/(SlopeVehicle−SlopeBlank)]×100% HDAC Inhibition Screening Assay

T1 sequence (O15379 whole entry): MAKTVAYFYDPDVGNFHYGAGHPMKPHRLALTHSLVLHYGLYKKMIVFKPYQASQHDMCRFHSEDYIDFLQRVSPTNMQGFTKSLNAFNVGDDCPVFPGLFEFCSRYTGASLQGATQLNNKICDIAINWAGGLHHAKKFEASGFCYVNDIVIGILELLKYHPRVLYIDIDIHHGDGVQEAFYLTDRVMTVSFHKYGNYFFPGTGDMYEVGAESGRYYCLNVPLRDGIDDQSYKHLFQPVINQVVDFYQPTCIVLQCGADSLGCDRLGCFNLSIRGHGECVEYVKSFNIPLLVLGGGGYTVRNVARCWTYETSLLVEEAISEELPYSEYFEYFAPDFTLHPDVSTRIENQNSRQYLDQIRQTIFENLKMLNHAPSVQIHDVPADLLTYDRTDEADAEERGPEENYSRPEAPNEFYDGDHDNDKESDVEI
T1 sequence (O75376 395-489 partner limits assumed): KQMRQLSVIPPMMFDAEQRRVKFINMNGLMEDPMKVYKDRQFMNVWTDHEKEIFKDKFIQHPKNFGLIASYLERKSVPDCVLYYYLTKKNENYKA

| inhibition at 2 µM (HDAC3) | inhibition at 10 µM (HDAC3) | inhibition at 50 µM (HDAC3) | inhibition at 2 µM (HDAC2) | inhibition at 10 µM (HDAC2) | inhibition at 50 µM (HDAC2) | inhibition at 2 µM (HDAC1) | inhibition at 10 µM (HDAC1) | inhibition at 50 µM (HDAC1) | inhibition at 4 µM (ATX (autotaxin)) | inhibition at 20 µM (ATX (autotaxin)) | inhibition at 50 µM (ATX (autotaxin)) | SMILES |
| --- | --- | --- | --- | --- | --- | --- | --- | --- | --- | --- | --- | --- |
| 50 to 80% | > 80% | > 80% | > 80% | > 80% | > 80% | 50 to 80% | > 80% | > 80% | < 50% | < 50% | < 50% | Cc1[nH]c2ccccc2c1CCNC1CCCc2cc(/C=C/C(=O)Nc3ccc(F)cc3N)ccc21 (stereo not drawn) [Compound 62, (E)-N-(2-amino-4-fluorophenyl)-3-(5-((2-(2-methyl-1H-indol-3-yl)ethyl)amino)-5,6,7,8-tetrahydronaphthalen-2-yl)acrylamide] |
| > 80% | > 80% | > 80% | > 80% | > 80% | > 80% | > 80% | > 80% | > 80% | < 50% | < 50% | < 50% | O=C(/C=C/c1ccc2c(c1)CCCC2NCCc1c[nH]c2ccccc12)NO (stereo not drawn) [Compound 61, (E)-3-(5-((2-(1H-indol-3-yl)ethyl)amino)-5,6,7,8-tetrahydronaphthalen-2-yl)-N-hydroxy acrylamide] |
| < 50% | 50 to 80% | 50 to 80% | < 50% | < 50% | 50 to 80% | < 50% | < 50% | 50 to 80% | > 80% | > 80% | > 80% | O=C(CCCCNC(=O)c1ccc2c(c1)CC/C(=C\c1cc(C(F)(F)F)cc(C(F)(F)F)c1)C2=O)NO [Compound 81, (E)-6-(3,5-bis(trifluoromethyl)benzylidene)-N-(5-(hydroxyamino)-5-oxopentyl)-5-oxo-5,6,7,8-tetrahydronaphthalene-2-carboxamide] |
| > 80% | > 80% | > 80% | > 80% | > 80% | > 80% | > 80% | > 80% | > 80% | < 50% | < 50% | < 50% | CN(C)c1ccc(C(=O)NC2CCc3cc(/C=C/C(=O)NO)ccc32)cc1 (stereo not drawn) [Compound 26, (E)-4-(dimethylamino)-N-(5-(3-(hydroxyamino)-3-oxoprop-1-en-1-yl)-2,3-dihydro-1H-inden-1-yl)benzamide] |
| < 50% | < 50% | < 50% | < 50% | < 50% | < 50% | < 50% | < 50% | < 50% | < 50% | < 50% | 50 to 80% | Nc1cc(F)ccc1NC(=O)CCCCNC(=O)c1ccc2c(c1)CC/C(=C\c1cc(C(F)(F)F)cc(C(F)(F)F)c1)C2=O [Compound 80] |
| < 50% | < 50% | < 50% | < 50% | < 50% | < 50% | < 50% | < 50% | < 50% | < 50% | < 50% | < 50% | Nc1cc(F)ccc1NC(=O)/C=C/c1ccc(COc2ccc3c(c2)CC/C(=C\c2cc(C(F)(F)F)cc(C(F)(F)F)c2)C3=O)cc1 [Compound 71] |
| < 50% | 50 to 80% | 50 to 80% | < 50% | < 50% | < 50% | < 50% | < 50% | < 50% | < 50% | < 50% | < 50% | Nc1cc(F)ccc1NC(=O)CCCCCCC(=O)NC1CCc2cc(Br)ccc21 (stereo not drawn) [Compound 39, N^1-(2-amino-4-fluorophenyl)-N8-(5-bromo-2,3-dihydro-1H-inden-1-yl)octanediamide] |
| > 80% | > 80% | > 80% | > 80% | > 80% | > 80% | > 80% | > 80% | > 80% | < 50% | < 50% | < 50% | O=C(/C=C/c1ccc2c(c1)CCC2N1CC(=O)N(c2cc(Cl)cc(Cl)c2)C1=O)NO (stereo not drawn) [Compound 37, (E)-3-(1-(3-(3,5-dichlorophenyl)-2,4-dioxoimidazolidin-1-yl)-2,3-dihydro-1H-inden-5-yl)-N-hydroxyacrylamide] |
| > 80% | > 80% | > 80% | > 80% | > 80% | > 80% | > 80% | > 80% | > 80% | < 50% | < 50% | < 50% | CCN(CC)c1ccc(C(=O)NC2CCc3cc(/C=C/C(=O)NO)ccc32)cc1 (stereo not drawn) [Compound 28, (E)-4-(diethylamino)-N-(5-(3-(hydroxyamino)-3-oxoprop-1-en-1-yl)-2,3-dihydro-1H-inden-1-yl)benzamide] |
| > 80% | > 80% | > 80% | > 80% | > 80% | > 80% | > 80% | > 80% | > 80% | < 50% | < 50% | 50 to 80% | CCN(CC)c1ccc(C(=O)NC2CCc3cc(/C=C/C(=O)NCCCCCC(=O)NO)ccc32)cc1 (stereo not drawn) [Compound 30, (E)-4-(diethylamino)-N-(5-(3-((6-(hydroxyamino)-6-oxohexyl)amino)-3-oxoprop-1-en-1-yl)-2,3-dihydro-1H-inden-1-yl)benzamide] |
| < 50% | < 50% | < 50% | < 50% | < 50% | < 50% | < 50% | < 50% | < 50% | < 50% | < 50% | < 50% | O=C(NO)c1ccc(COc2ccc3c(c2)CCC(Cc2cc(C(F)(F)F)cc(C(F)(F)F)c2)C3=O)cc1 (stereo not drawn) [Compound 68, 4-(((6-(3,5-bis(trifluoromethyl)benzyl)-5-oxo-5,6,7,8-tetrahydronaphthalen-2-yl)oxy)methyl)-N-hydroxybenzamide] |
| > 80% | > 80% | > 80% | > 80% | > 80% | > 80% | 50 to 80% | > 80% | > 80% | < 50% | 50 to 80% | 50 to 80% | O=C(/C=C/c1ccc(COc2ccc3c(c2)CCCC3=O)cc1)NO [Compound 70, (E)-N-hydroxy-3-(4-(((5-oxo-5,6,7,8-tetrahydronaphthalen-2-yl)oxy)-methyl)phenyl)acrylamide] |
| < 50% | 50 to 80% | 50 to 80% | < 50% | < 50% | 50 to 80% | < 50% | < 50% | < 50% | < 50% | < 50% | < 50% | COc1ccc2c(c1)CCC2NC(=O)CCCCCCC(=O)Nc1ccc(F)cc1N (stereo not drawn) [Compound 43, N1-(2-amino-4-fluorophenyl)-N8-(5-methoxy-2,3-dihydro-1H-inden-1-yl)octanediamide] |
